pIC50: −log10 of the molar value.

For experiment [1], the target named is SARS-CoV-2 3CLpro (Severe acute respiratory syndrome coronavirus 2, UniProt P0DTD1). As to the kind of experiment: FRET based protease assay, SARS-CoV-2 3CL. Format: biochemical, SARS-CoV-2 (strain BetaCoV/Wuhan/WIV04/2019).
Experiment [2] has as its target MERS-CoV 3CLpro (Middle East respiratory syndrome-related coronavirus, UniProt K9N638). Nature of the experiment: biochemical. The following applies: MERS IC50, 75 nM MERS-CoV 3CLpro, 6 μM peptide 1 substrate, 25° C., 1.5 hrs, pH 7.5.

MERS-CoV 3CLpro, sequence (K9N638 3248-3553 limits assumed): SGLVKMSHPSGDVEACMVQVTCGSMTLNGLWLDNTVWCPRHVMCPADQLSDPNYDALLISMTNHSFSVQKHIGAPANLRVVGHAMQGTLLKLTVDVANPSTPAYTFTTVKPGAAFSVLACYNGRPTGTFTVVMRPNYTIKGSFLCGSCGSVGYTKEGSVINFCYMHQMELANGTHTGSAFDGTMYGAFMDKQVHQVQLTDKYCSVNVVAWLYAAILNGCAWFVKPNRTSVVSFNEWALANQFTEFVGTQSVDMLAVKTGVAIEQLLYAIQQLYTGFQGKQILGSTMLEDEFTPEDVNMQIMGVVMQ

Broadly, the pIC50 is −log10 of the IC50, conventionally taken in molar units. Lower therefore signals a high IC50. Regarding `CC(C)C[C@@H]1NC(=O)[C@@H](NC(=O)C(C)(C)C)CCCC[C@H]2CNC(=O)[C@@H]2C[C@@H](C#N)NC1=O` [Example 54], the pIC50 in experiment [1] and in experiment [2] was 6.00 to 7.00 each time.
On to `CC(C)(C)C(=O)N[C@H]1CCCC[C@H]2CNC(=O)[C@H]2C[C@@H](C#N)NC(=O)[C@@H]2[C@@H]3[C@H](CN2C1=O)C3(C)C` [Example 55], for which the pIC50 in experiment [1] was more than 7.00; in experiment [2], 6.00 to 7.00.
With `CC(C)C[C@@H]1NC(=O)[C@@H](NC(=O)OC(C)(C)C)CCCC[C@H]2CNC(=O)[C@H]2C[C@@H](C#N)NC1=O` [Example 56], the negative logarithm of the IC50 (pIC50) in experiment [1] and in experiment [2] was 6.00 to 7.00 each time.
In the case of `CC(C)C[C@H]1C(=O)N[C@H](C#N)C[C@@H]2C(=O)NC[C@@H]2CCCC[C@H](NC(=O)C(C)(C)C)C(=O)N1C` [Example 57], the figures for the pIC50 in experiment [1] and in experiment [2] were 6.00 to 7.00 and 4.70 to 6.00, respectively.
In the case of `CC(C)C[C@@H]1NC(=O)[C@@H](NC(=O)C(C)(C)C)CC/C=C/[C@H]2CNC(=O)[C@H]2C[C@@H](C#N)NC1=O` [Example 58], the negative-log IC50 (pIC50) in experiment [1] was more than 7.00; in experiment [2] it was 6.00 to 7.00.
With `CC(C)C[C@@H]1NC(=O)[C@@H](NC(=O)C(C)(C)C)CC/C=C\[C@H]2CNC(=O)[C@H]2C[C@@H](C#N)NC1=O` [Example 59], the values for the pIC50 in experiment [1] and in experiment [2] were 6.00 to 7.00 and 4.70 to 6.00, respectively.
As for `CC(C)(C)C[C@@H]1NC(=O)[C@@H](NC(=O)OC(C)(C)C)CCCC[C@H]2CNC(=O)[C@H]2C[C@@H](C#N)NC1=O` [Example 60], the pIC50 was more than 7.00 in experiment [1] and 6.00 to 7.00 in experiment [2].
With `CC(C)(C)C(=O)N[C@H]1CC/C=C/[C@H]2CNC(=O)[C@H]2C[C@@H](C#N)NC(=O)[C@@H]2[C@@H]3[C@H](CN2C1=O)C3(C)C` [Example 61], the negative logarithm of the IC50 (pIC50) in experiment [1] and in experiment [2] was more than 7.00 throughout.
With `CC1(C)[C@@H]2[C@H]3C(=O)N[C@H](C#N)C[C@@H]4C(=O)NC[C@@H]4CCCC[C@H](NC(=O)C4CC(F)(F)C4)C(=O)N3C[C@@H]21` [Example 62], the pIC50 in experiment [1] and in experiment [2] was more than 7.00 throughout.
In the case of `CC(C)(C)C(=O)N[C@H]1C/C=C/[C@H]2CNC(=O)[C@H]2C[C@@H](C#N)NC(=O)[C@@H]2[C@@H]3[C@H](CN2C1=O)C3(C)C` [Example 63], the pIC50 was more than 7.00 in experiment [1] and 6.00 to 7.00 in experiment [2].
For `CC(C)(C)C(=O)N[C@H]1C/C=C\[C@H]2CNC(=O)[C@H]2C[C@@H](C#N)NC(=O)[C@@H]2[C@@H]3[C@H](CN2C1=O)C3(C)C` [Example 64], the pIC50 in experiment [1] and in experiment [2] was less than 4.70 throughout.
For the molecule `CC(C)(C)C(=O)N[C@H]1CCCC[C@H]2CCNC(=O)[C@@H]2C[C@@H](C#N)NC(=O)[C@@H]2[C@@H]3[C@H](CN2C1=O)C3(C)C` [Example 65], the values for the pIC50 in experiment [1] and in experiment [2] were more than 7.00 and 6.00 to 7.00, respectively.
On to `CC(C)(C)C(=O)N[C@H]1CCC[C@H]2CCNC(=O)[C@@H]2C[C@@H](C#N)NC(=O)[C@@H]2[C@@H]3[C@H](CN2C1=O)C3(C)C` [Example 66], for which the results for the pIC50 in experiment [1] and in experiment [2] were more than 7.00 and 6.00 to 7.00, respectively.
As for `CC(C)(C)C(=O)N[C@H]1CCCC[C@H]2CNC(=O)[C@@H]2C[C@@H](C#N)NC(=O)[C@@H]2[C@@H]3[C@H](CN2C1=O)C3(C)C` [Example 67], the negative logarithm of the IC50 (pIC50) in experiment [1] and in experiment [2] was 6.00 to 7.00 throughout.
For `CC1(C)[C@@H]2[C@H]3C(=O)N[C@H](C#N)C[C@@H]4C(=O)NC[C@@H]4CCCC[C@H](NC(=O)C4CCC(F)(F)CC4)C(=O)N3C[C@@H]21` [Example 68], the pIC50 in experiment [1] and in experiment [2] was more than 7.00 throughout.
On to `CC(C)(C)C(=O)N[C@H]1CCCC[C@H]2CCNC(=O)[C@H]2C[C@@H](C#N)NC(=O)[C@@H]2[C@@H]3[C@H](CN2C1=O)C3(C)C` [Example 69], for which the pIC50 in experiment [1] is more than 7.00; in experiment [2], 6.00 to 7.00.
Take `CC(C)(C)C(=O)N[C@H]1CCCC[C@H]2CNC(=O)[C@H]2C[C@@H](C#N)NC(=O)[C@@H]2[C@H]3CCC[C@H]3CN2C1=O` [Example 70]: the pIC50 in experiment [1] was more than 7.00; in experiment [2], 6.00 to 7.00.
Taken in the same sequence, the figures for `CC(C)(C)C(=O)N[C@H]1CCCC[C@H]2CNC(=O)[C@H]2C[C@@H](C#N)NC(=O)[C@@H]2CCCCN2C1=O` [Example 71] were 4.70 to 6.00 and 4.70 to 6.00.
Taken in the same sequence, the figures for `CC(C)(C)OC(=O)N[C@H]1CCCC[C@H]2CNC(=O)[C@H]2C[C@@H](C#N)NC(=O)[C@@H]2[C@@H]3[C@H](CN2C1=O)C3(C)C` [Example 72] were more than 7.00 and more than 7.00.
Regarding `CC(C)(C)CC(=O)N[C@H]1CCCC[C@H]2CNC(=O)[C@H]2C[C@@H](C#N)NC(=O)[C@@H]2[C@@H]3[C@H](CN2C1=O)C3(C)C` [Example 73], the negative-log IC50 (pIC50) in experiment [1] and in experiment [2] was more than 7.00 each time.
As for `CC(C)(C)C(=O)N[C@H]1CCCC[C@H]2CNC(=O)[C@H]2C[C@@H](C#N)NC(=O)[C@@H]2CCCN2C1=O` [Example 74], the pIC50 in experiment [1] and in experiment [2] was 4.70 to 6.00 in each case.
On to `CC1(C)[C@@H]2[C@H]3C(=O)N[C@H](C#N)C[C@@H]4C(=O)NC[C@@H]4CCCC[C@H](NC(=O)OC4CCCC4)C(=O)N3C[C@@H]21` [Example 75], for which the pIC50 in experiment [1] and in experiment [2] was more than 7.00 throughout.
As for `CC1(C)[C@@H]2[C@H]3C(=O)N[C@H](C#N)C[C@@H]4C(=O)NC[C@@H]4CCCC[C@H](NC(=O)C4CCC4)C(=O)N3C[C@@H]21` [Example 76], the pIC50 is more than 7.00 in experiment [1] and 6.00 to 7.00 in experiment [2].
For the molecule `CC1(C)[C@@H]2[C@H]3C(=O)N[C@H](C#N)C[C@@H]4C(=O)NC[C@@H]4CCCC[C@H](NC(=O)C4CCCCC4)C(=O)N3C[C@@H]21` [Example 77], the negative-log IC50 (pIC50) in experiment [1] and in experiment [2] was more than 7.00 in each case.
With `CN1C(=O)[C@@H](NC(=O)C(C)(C)C)CCCC[C@H]2CNC(=O)[C@H]2C[C@@H](C#N)NC(=O)[C@@H]1CC(C)(C)C` [Example 78], the pIC50 in experiment [1] is more than 7.00; in experiment [2], 4.70 to 6.00.
In the case of `CC(C)(C)OC(=O)N[C@H]1CCCC[C@H]2CNC(=O)[C@H]2C[C@@H](C#N)NC(=O)[C@@H]2[C@H]3CCC[C@H]3CN2C1=O` [Example 79], the pIC50 was more than 7.00 in experiment [1] and 6.00 to 7.00 in experiment [2].
For `CC(C)(C)C(=O)N[C@H]1CCCC[C@H]2CNC(=O)[C@H]2C[C@@H](C#N)NC(=O)[C@H](C2CCCC2)NC1=O` [Example 80], the negative-log IC50 (pIC50) in experiment [1] and in experiment [2] was 6.00 to 7.00 throughout.
On to `CC1(C)[C@@H]2[C@H]3C(=O)N[C@H](C#N)C[C@@H]4C(=O)NC[C@@H]4CCCC[C@H](NC(=O)C4CC5(CCC5)C4)C(=O)N3C[C@@H]21` (some centres unmarked) [Example 81], for which the negative-log IC50 (pIC50) is more than 7.00 in experiment [1] and 6.00 to 7.00 in experiment [2].
In the case of `CC1(C)[C@@H]2[C@H]3C(=O)N[C@H](C#N)C[C@@H]4C(=O)NC[C@@H]4CCCC[C@H](NC(=O)c4ccc(F)cc4)C(=O)N3C[C@@H]21` [Example 82], the negative logarithm of the IC50 (pIC50) in experiment [1] and in experiment [2] was more than 7.00 throughout.
On to `CC1(C)[C@@H]2[C@H]3C(=O)N[C@H](C#N)C[C@@H]4C(=O)NC[C@@H]4/C=C/CC[C@H](NC(=O)C4CC(F)(F)C4)C(=O)N3C[C@@H]21` [Example 83], for which the negative logarithm of the IC50 (pIC50) in experiment [1] and in experiment [2] was more than 7.00 in each case.
Consider `N#C[C@@H]1C[C@@H]2C(=O)NC[C@@H]2CCCC[C@H](NC(=O)C2CC(F)(F)C2)C(=O)N2C[C@@H]3CCC[C@@H]3[C@H]2C(=O)N1` [Example 84], for which the pIC50 in experiment [1] was more than 7.00; in experiment [2], 6.00 to 7.00.

Values taken from patent US20260325540A1 (priority 2023, published 2026).
